Values joined by “and” are separate entries in the source; they are usually repeats but may differ in a detail not shown here. Equal entries are not always repeated.
Test system: 242566-281-R-J2-PDC complex spheroid viability
Assay: Anticancer human tumor 242566-281-R-J2-PDC patient-derived pancreatic carcinoma cell line growth inhibition [RAS]
Details: for viability, T/C: stronger effect = lower value
From the text: RAS pathway inhibitors in Combinations in Complex Spheroids
A high-throughput screen of multi-cell type tumor spheroids was designed to identify active combinations of RAS pathway inhibitors and targeted small molecules. Complex spheroids include a stromal component modeled by human endothelial cells (HUVEC) and fibroblasts modeled by human mesenchymal stem cells (MSCs). The concentration ranges selected for each drug and investigational agent were based upon clinically achievable concentrations if the clinical Cmax of the agent was known.
Compounds. The drugs and investigational agents: abemaciclib (NSC768073), cobimetinib (NSC768068), divarasib (GDC6063, NSC841802), docetaxel (NSC628503), GDC-1971 (RLY-1971, NSC841576), gemcitabine (NSC613327), inavolisib (NSC800729), ipatasertib (NSC767898), KB-0742 (NSC834161), MRTX-1133 (NSC836407), osimertinib (NSC779217), RMC-4630 (NSC839698), RMC-6236 (NSC851965), RMC-6291 (NSC852671), Ro-3306 (NSC812927), sapanisertib (NSC764658), SN-38 (NSC673596), staurosporine (NSC755774), SY5609 (NSC837396), and tovorafenib (DAY101, NSC766906), were obtained from the National Cancer Institute (NCI) Developmental Therapeutics Program Chemical Repository. The FDA-approved anticancer drug set is available from the NCI Developmental Therapeutics Program. […] The stock solutions were prepared in dimethyl sulfoxide (DMSO, Sigma-Aldrich, St. Louis, MO, cat. D2650) at 800-fold the tested concentration and stored at -70 degrees C prior to their use. All drugs and investigational agents were tested over a range starting from a high concentration at or near the clinical Cmax and decreasing in half-log increments. If the clinical Cmax for an agent had not been determined, the highest concentration tested was 10 microM.
Cell Culture. All cells were maintained in an incubator at 37 degrees C and 5% CO2 with 95% humidity. The PDC lines were cultured according to standard operating procedures established by the NCI PDMR. All PDCs were thawed and cultured in Matrigel-coated flasks prepared with a working solution of 1X Ham's F-12 nutrient mix, without supplementation (Invitrogen, Waltham, MA, cat. 11765054), 100 U/mL penicillin-streptomycin (Invitrogen, cat. 15140122), and 2.5% Matrigel (Corning Inc., Corning, NY, cat. 354248) for the first three passages. The 362531-283-R-J2-PDC and 782815-120-R-J1-PDC lines were cultured in 6C/Colon 1B media, which includes advanced DMEM/F-12 (Thermo Fisher Scientific, cat. 12634028), 10 mM HEPES (Thermo Fisher Scientific, cat. 15630080), 1X GlutaMAX supplement (Thermo Fisher Scientific, cat. 35050061), 0.1 mg/mL primocin (InvivoGen, San Diego, CA, cat. ant-pm-2), 10% defined fetal bovine serum, heat inactivated (HyClone Laboratories Inc., Logan, UT, cat. SH30070.03HI), 50% L-WRN conditioned media (ATCC, cat. CRL-3276), 1.25 mM N-Acetyl-L-cysteine (Sigma-Aldrich, cat. A9165), 10 mM nicotinamide (Sigma-Aldrich, cat. N0636), 1X B-27 supplement (Thermo Fisher Scientific, cat. 17504044), 1X N-2 supplement (Thermo Fisher Scientific, cat. 17502048), 50 ng/mL human EGF (Thermo Fisher Scientific, cat. PHG0311), and 10 microM Y-27632 dihydrochloride (Tocris Bioscience, cat. 1254). The K12877-001-R-J1-PDC line was cultured in 6I media, which includes all 6C/Colon 1B media plus 10 ng/mL human FGF-10 (PeproTech, cat. 100-26), 1 ng/mL human FGF-2 (PeproTech, cat. 100-18B), 1 µM prostaglandin E2 (Tocris Bioscience, cat. 2296), […] hydrocortisone (Sigma-Aldrich, cat. H4001), and […] bovine insulin (Sigma-Aldrich, cat. I6634). The K86415-001-R-J1-PDC line was cultured in 6D media, which includes all 6C/Colon 1B media components minus the L-WRN conditioned media. The 485176-168-R4-J1-PDC was cultured in PANC media, which includes all 6C/Colon 1B media plus 100 ng/mL human FGF-10 (PeproTech, cat. 100-26), 500 nM SB-431542 (Selleckchem, cat. S1067), and 10 nM gastrin (Tocris Bioscience, cat. 3006). […]

[1] = compound alone, run of 07/09/2024
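Also: spheroids exposed to compound for 7 days before readout.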
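For viability, T/C in this document: 100% = DMSO vehicle control wells.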

Structure (SMILES): C#Cc1c(F)ccc2cc(O)cc(-c3ncc4c(N5CC6CCC(C5)N6)nc(OCC56CCCN5CC(F)C6)nc4c3F)c12 (stereo not drawn)
- viability, T/C (compound 0.0316 µM): 84.1% [middle of 8 runs]
- viability, T/C (compound 0.1 µM): 80.2% [middle of 8 runs]
- viability, T/C (compound 0.316 µM): 71.4% [middle of 8 runs]
- viability, T/C (compound 3.16 µM): 53.9% [middle of 8 runs]
- viability, T/C (compound 10 µM): 49.6% [middle of 8 runs]

Structure (SMILES): C=CC(=O)N1CCN(c2nc(OCC3CCCN3C)nc3c(F)c(-c4nc(N)cc(C)c4C(F)(F)F)c(Cl)cc23)C(C)C1 (stereo not drawn)
- viability, T/C (compound 0.00316 µM): 102% [middle of 12 runs]
- viability, T/C (compound 0.0316 µM): 99.2% [middle of 12 runs]
- viability, T/C (compound 0.1 µM): 100% [middle of 12 runs]
- IC50 (compound alone, run of 07/15/2024): > 1 µM
- IC50 (curve of compound): > 1 µM

Structure (SMILES): C=CC(=O)Nc1cc(Nc2nccc(-c3cn(C)c4ccccc34)n2)c(OC)cc1N(C)CCN(C)C
- viability, T/C (compound 0.00316 µM): 105% [middle of 4 runs]
- viability, T/C (compound 0.01 µM): 101% [middle of 4 runs]
- viability, T/C (compound 0.0316 µM): 90.5% [middle of 4 runs]
- viability, T/C (compound 0.1 µM): 91.2% [middle of 4 runs]
- IC50 (curve of compound): > 1 µM

Structure (SMILES): CC(=O)OC12COC1CC(O)C1(C)C(=O)C(O)C3=C(C)C(OC(=O)C(O)C(NC(=O)OC(C)(C)C)c4ccccc4)CC(O)(C(OC(=O)c4ccccc4)C21)C3(C)C (stereo not drawn)
- viability, T/C (compound 0.0316 µM): 54.6% [middle of 4 runs]
- viability, T/C (compound 0.316 µM): 47.6% [middle of 4 runs]
- viability, T/C (compound 1 µM): 43.5% [middle of 4 runs]
- viability, T/C (compound 3.16 µM): 51.3% [middle of 4 runs]

Structure (SMILES): CC(C)NCC(C(=O)N1CCN(c2ncnc3c2C(C)CC3O)CC1)c1ccc(Cl)cc1 (stereo not drawn)
- viability, T/C (compound 0.0316 µM): 104% [middle of 4 runs]
- viability, T/C (compound 0.1 µM): 106% [middle of 4 runs]
- viability, T/C (compound 0.316 µM): 103% [middle of 4 runs]
- viability, T/C (compound 1 µM): 101% [middle of 4 runs]
- IC50 (curve of compound): > 10 µM

Structure (SMILES): CC(C)n1nc(-c2ccc3oc(N)nc3c2)c2c(N)ncnc21
- viability, T/C (compound 0.000316 µM): 104% [middle of 4 runs]
- viability, T/C (compound 0.001 µM): 102% [middle of 4 runs]
- viability, T/C (compound 0.01 µM): 85.6% [middle of 4 runs]
- viability, T/C (compound 0.0316 µM): 63.6% [middle of 4 runs]
- viability, T/C (compound 0.1 µM): 60.3% [middle of 4 runs]
- IC50 (curve of compound): 0.0509 µM and > 0.1 µM and 0.0525 µM

Structure (SMILES): CC(Nc1ccc2c(c1)OCCn1cc(N3C(=O)OCC3C(F)F)nc1-2)C(N)=O (stereo not drawn)
- viability, T/C (compound 0.0316 µM): 99.1% [middle of 4 runs]
- viability, T/C (compound 0.1 µM): 99.7% [middle of 4 runs]
- viability, T/C (compound 1 µM): 57.4% [middle of 4 runs]
- viability, T/C (compound 3.16 µM): 37.6% [middle of 4 runs]
- viability, T/C (compound 10 µM): 28.8% [middle of 4 runs]
- IC50 (curve of compound): 1.41 µM [middle of 4 runs]

Structure (SMILES): CC1(C)CCC(Nc2ncc(C(F)(F)F)c(-c3c[nH]c4c(P(C)(C)=O)c(C#N)ccc34)n2)CN1 (stereo not drawn)
- viability, T/C (compound 0.03 µM): 110% [middle of 4 runs]
- IC50 (curve of compound): > 0.3 µM

Structure (SMILES): CC1(O)CCCC1n1c(=O)c(C(F)F)cc2cnc(NC3CCN(S(C)(=O)=O)CC3)nc21 (stereo not drawn)
- viability, T/C (compound 1 µM): 106% [middle of 4 runs]
- viability, T/C (compound 3.16 µM): 105% and 103% (2×) and 123%
- IC50 (curve of compound): > 10 µM and 7.54 µM and 8.69 µM

Structure (SMILES): CCC(CC)c1cc(NC2CCC(N)C2)n2nccc2n1 (stereo not drawn)
- viability, T/C (compound 0.0316 µM): 105% [middle of 4 runs]
- viability, T/C (compound 0.1 µM): 119% [middle of 4 runs]
- viability, T/C (compound 0.316 µM): 105% [middle of 4 runs]
- viability, T/C (compound 1 µM): 114% [middle of 4 runs]
- viability, T/C (compound 10 µM): 2.75% [middle of 4 runs]
- IC50 (curve of compound): 4.51 µM [middle of 4 runs]

Structure (SMILES): CCN1CCN(Cc2ccc(Nc3ncc(F)c(-c4cc(F)c5nc(C)n(C(C)C)c5c4)n3)nc2)CC1
- viability, T/C (compound 0.00316 µM): 102% [middle of 4 runs]
- viability, T/C (compound 0.0316 µM): 102% [middle of 4 runs]
- viability, T/C (compound 0.1 µM): 99.1% [middle of 4 runs]
- IC50 (curve of compound): > 1 µM

Structure (SMILES): CCc1c2c(nc3ccc(O)cc13)-c1cc3c(c(=O)n1C2)COC(=O)[C@]3(O)CC
- viability, T/C (compound 0.003 µM): 97% [middle of 4 runs]
- viability, T/C (compound 0.00949 µM): 76% [middle of 4 runs]
- viability, T/C (compound 0.03 µM): 49% [middle of 4 runs]
- viability, T/C (compound 0.0949 µM): 24.7% [middle of 4 runs]
- viability, T/C (compound 0.3 µM): 12.9% [middle of 4 runs]
- IC50 (curve of compound): 30.9 nM [middle of 4 runs]

Structure (SMILES): CCn1c(-c2cc(N3CCN(C)CC3)cnc2C(C)OC)c2c3cc(ccc31)-c1csc(n1)CC(NC(=O)C1CC1C)C(=O)N1CCCC(N1)C(=O)OCC(C)(C)C2 (stereo not drawn)
- viability, T/C (compound 0.000949 µM): 93.7% [middle of 8 runs]
- viability, T/C (compound 0.003 µM): 76.4% [middle of 8 runs]
- viability, T/C (compound 0.00949 µM): 49% [middle of 8 runs]
- viability, T/C (compound 0.03 µM): 31.3% [middle of 8 runs]
- viability, T/C (compound 0.0949 µM): 23.8% [middle of 8 runs]
- viability, T/C (compound 0.3 µM): 21.6% [middle of 8 runs]
- IC50 [1]: 9.34 nM [middle of 8 runs]

Structure (SMILES): CCn1c(-c2cccnc2C(C)OC)c2c3cc(ccc31)N1CCOC(CC(NC(=O)C(C(C)C)N(C)C(=O)C3(F)CCN(C(=O)C#CC(C)(C)N(C)C)CC3)C(=O)N3CCCC(N3)C(=O)OCC(C)(C)C2)C1 (stereo not drawn)
- viability, T/C (compound 0.000949 µM): 93.4% [middle of 8 runs]
- viability, T/C (compound 0.003 µM): 108% [middle of 8 runs]
- viability, T/C (compound 0.00949 µM): 104% [middle of 8 runs]
- viability, T/C (compound 0.03 µM): 109% [middle of 8 runs]
- viability, T/C (compound 0.0949 µM): 98.3% [middle of 8 runs]
- viability, T/C (compound 0.3 µM): 87.6% [middle of 8 runs]
- IC50 [1]: > 0.3 µM

Structure (SMILES): C[C@@H](NC(=O)c1ncnc(N)c1Cl)c1ncc(C(=O)Nc2cc(C(F)(F)F)c(Cl)cn2)s1
- viability, T/C (compound 0.0316 µM): 116% [middle of 4 runs]
- viability, T/C (compound 0.1 µM): 114% [middle of 4 runs]
- viability, T/C (compound 0.316 µM): 110% [middle of 4 runs]
- viability, T/C (compound 1 µM): 118% [middle of 4 runs]
- viability, T/C (compound 3.16 µM): 106% [middle of 4 runs]
- IC50 (curve of compound): > 10 µM

Structure (SMILES): Cc1nc(N2CCC3(CC2)COC(C)C3N)c(CO)nc1Sc1ccnc(N)c1Cl (stereo not drawn)
- viability, T/C (compound 0.0316 µM): 119% and 98.2% and 102% (2×)
- viability, T/C (compound 0.316 µM): 94.2% [middle of 4 runs]
- viability, T/C (compound 1 µM): 85.4% [middle of 4 runs]
- IC50 (curve of compound): > 10 µM

Structure (SMILES): NC1c2ccccc2OC12CCN(c1cnc3c(N4CCCc5ncccc54)n[nH]c3n1)CC2 (stereo not drawn)
- viability, T/C (compound 1 µM): 68.9% [middle of 4 runs]
- viability, T/C (compound 10 µM): 51.8% [middle of 4 runs]
- IC50 (curve of compound): > 10 µM and 3.3 µM and 3.4 µM

Structure (SMILES): Nc1ccn(C2OC(CO)C(O)C2(F)F)c(=O)n1 (stereo not drawn)
- viability, T/C (compound 0.00316 µM): 102% [middle of 4 runs]
- viability, T/C (compound 0.01 µM): 103% [middle of 4 runs]
- viability, T/C (compound 0.0316 µM): 74.9% [middle of 4 runs]
- viability, T/C (compound 0.1 µM): 49.9% [middle of 4 runs]
- viability, T/C (compound 0.316 µM): 23.4% [middle of 4 runs]
- viability, T/C (compound 1 µM): 15.6% [middle of 4 runs]
- IC50 (curve of compound): 89.6 nM [middle of 4 runs]

Structure (SMILES): O=C(c1ccc(F)c(F)c1Nc1ccc(I)cc1F)N1CC(O)([C@@H]2CCCCN2)C1
- viability, T/C (compound 0.1 µM): 64.1% [middle of 4 runs]
- viability, T/C (compound 0.316 µM): 41.3% [middle of 4 runs]
